Data on ten compounds can be found in patent US7078566B2, “Salts of guanidine derivatives and pharmaceutical preparations consisting thereof” (Biosphinks Aktiengesellschaft, priority 2001, dated 2006).

Data set [1] can be described thus: Solubility of C11AG salts in potassium phosphate buffer (crystal formation by microscope). Particulars: for Crystals: pH 7.4, 4 mM C11AG salt.
For data set [2], the target named is neutral sphingomyelinase from Bacillus cereus (Bacillus cereus, UniProt P11889). Description: biochemical. Particulars: pH 7.2, 37° C., 24 h. As to the method: Paranitrophenylphosphoryl-choline was dissolved to a final concentration of 1 mg/ml in 0.1 M Tris at pH 7.2 and 10 mM […]. […] The optical density is a measure for the quantity of cleaved substrate. Dose-effect curves were used to determine the concentration at which the enzyme activity is inhibited by 50% (IC50).

In data set [3] the test system is nude mice (strain: Swiss, Nu/Nu). Description: Physiological tolerability after subcutaneous application (tissue damage after 24 h). As to the method:
Aliquots of 0.1 ml each were administered to 3 nude mice (strain: Swiss, Nu/Nu) by subcutaneous application. After 24 h, the degree of tissue damage was recorded. The results are shown in Table 4, in which no visible damage=−, reddening=+, edemas=++, and necroses=+++.

A short description of data set [4]: Solubility of C11AG salts in water.
In another data set the test system is DSS induced colitis. Briefly: DSS induced colitis, body weight loss. The data set is classed as in vivo, mice (strain Balb C). The note with it: in food equimolar to 0.5 mg C11AG/g.
From the text: (§1) Female mice (strain Balb C, 9 weeks old) were obtained from Charles River and were kept under specific pathogen free conditions under an artificial day/night rhythm. Animals were fed with Altromin standard diet and received water ad libitum. Colitis was induced by addition of dextran sulfate (DSS) (MW 36,000–50,000, ICN, Aurora, Ohio, lot 2387F) to drinking water at a concentration of 7.5%. For C11AG treatment the free base of C11AG (lot 2-3-3) was used. Animals received Altromin powder food, mixed with 0.5 mg C11AG/g or with equimolar concentration of C11AG salt (i.e. 0.785 mg/g C11AG hexanate). As determined in calibration experiments Balb C mice (8–12 weeks old) consume each day 150 g food/kg body weight. The corresponding daily doses of C11AG were therefore: 75 and […]. Body weight loss is one of the most evident symptoms of DSS induced colitis. Mean body weight was determined every day for each group and the weight loss was calculated.
as §1, with “libitum.Colitis” for “libitum. Colitis”, “Animals received Altromin powder food, mixed with 0.5 mg C11AG/g or with equimolar concentration of C11AG salt (i.e. 0.785 mg/g C11AG hexanate).” left out, “calculated. Mean weight loss was added over a period of eleven days.” for “calculated.”

Where [5] appears, read: paranitrophenylphosphoryl-choline substrate.
[6] abbreviates: IC50, paranitrophenylphosphoryl-choline substrate.
Where [7] appears, read: Example 10, mean weight loss added over eleven days, FIG. 3.

Sequence of neutral sphingomyelinase from Bacillus cereus (P11889 28-333): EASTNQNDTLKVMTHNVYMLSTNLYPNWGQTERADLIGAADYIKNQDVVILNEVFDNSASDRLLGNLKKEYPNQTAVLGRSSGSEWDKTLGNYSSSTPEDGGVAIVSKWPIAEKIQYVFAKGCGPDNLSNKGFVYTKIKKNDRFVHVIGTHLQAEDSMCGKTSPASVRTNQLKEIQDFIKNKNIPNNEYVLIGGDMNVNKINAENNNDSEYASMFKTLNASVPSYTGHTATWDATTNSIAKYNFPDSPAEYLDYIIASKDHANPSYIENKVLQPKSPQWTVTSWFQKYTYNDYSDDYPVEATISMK

As to `CC(=O)O.CCCCCCCCCCC=NNC(=N)N` [Acetate, undecylideneaminoguanidine acetate], the Crystals entry in data set [1] (phosphate 1 mM) was “no”; in data set [1] (phosphate 10 mM–1,000 mM), “yes”. The “phosphate concentration at which the salt precipitates (forms insoluble phosphates)” value in data set [1] (potassium phosphate buffer pH 7.4, 4 mM C11AG salt) stood at 10 mM. Besides, the half-maximal inhibitory concentration (IC50) in data set [2] (setting [5]) stood at 0.85 µg/mL. The “concentration up to which well-tolerated / no damage” value in data set [3] (0.1 ml subcutaneous, nude mice, after 24 h) amounted to 20000 µM. Besides, the Solubility in water in data set [4] is greater than 10000 µg/mL.
As for `CCCCCCCCCCC=NNC(=N)N` [Chloride, reference compound], the Crystals result in data set [1] (phosphate 1 mM–1,000 mM) was “yes”. Also, the IC50 in data set [2] (setting [6]) was 3.53 µM. Also, in data set [3] (Swiss Nu/Nu (nude), mouse, in vivo, sc, 24 h), the “lowest concentration leading to reddening and edemas” value turned out to be 20 mM. Moreover, in data set [4] (water), the solubility was greater than 10000 µg/mL.
Regarding `CC(O)C(=O)O.CCCCCCCCCCC=NNC(=N)N` [Lactate, undecylideneaminoguanidine lactate], the values for the Crystals result in data set [1] (phosphate 1 mM) and in data set [1] (phosphate 10 mM–1,000 mM) were “no” and “yes”, respectively. This compound also registered a 50% inhibitory concentration (IC50) in data set [2] (setting [5]) of 0.9 µg/mL.
Consider `CCCCCCCCCCC=NNC(=N)N` [Oenanthate, undecylideneaminoguanidine oenanthate], for which, in data set [1] (phosphate 1 mM–1,000 mM), the Crystals result is “no”. The compound also gave a concentration for half-maximal inhibition (IC50) in data set [2] (setting [6]) of 3.31 µM. In addition, the Solubility in water in data set [4] is greater than 10000 µg/mL.
Consider Dodecylphosphonate, for which, in data set [4], the Solubility in water was 100 µg/mL.
On the same count and under the same terms, the figure for Undecylenate is 100 µg/mL.
Turning to “undecylideneaminoguanidine decanoate [Decanate]”, the “Protection from DSS induced weight loss as compared to the free base” value in the data set with DSS induced colitis (setting [7]) is “more pronounced”.
Consider “undecylideneaminoguanidine hexanoate [hexanoic acid salt of C11AG]”, for which the “Protection from DSS induced weight loss as compared to the free base” value was “more pronounced” in the data set on DSS induced colitis (Example 9, mean weight loss per day, FIG. 2) and “more pronounced” with DSS induced colitis (setting [7]).
Consider “undecylideneaminoguanidine octanoate [octanoic acid salt of C11AG]”, for which the “Protection from DSS induced weight loss as compared to the free base” value in the data set on DSS induced colitis (setting [7]) is recorded as “more pronounced”.
As to undecylideneaminoguanidine pelargonate, the Crystals result in data set [1] (phosphate 1 mM–1,000 mM) is recorded as “no”. The same compound yielded an IC50 in data set [2] (setting [5]) of 0.95 µg/mL. Further, the Solubility in water in data set [4] was greater than 10000 µg/mL.

The IC50 is the concentration that inhibits the measured activity by half. A word on the solubility: it is how much of the substance goes into solution per volume.
